These results are taken from patent publication US8324199B2, “Pyridazine derivatives as factor xia inhibitors” (Bristol-Myers Squibb Company, priority 2008, dated 2012).

The assay concerns the target T1, purified human Factor XIa (Homo sapiens, UniProt P03951).
T1 construct: purchased Haematologic Technologies
Briefly: Factor XIa assay (chromogenic substrate hydrolysis, Ki). Particulars: purified human Factor XIa 75-200 pM, substrate S-2366, 50 mM HEPES pH 7.4. In kind it is biochemical. Here is the method:
The effectiveness of compounds of the present invention as inhibitors of the coagulation factors XIa, VIIa, IXa, Xa, XIIa, plasma kallikrein or thrombin, can be determined using a relevant purified serine protease, respectively, and an appropriate synthetic substrate. The rate of hydrolysis of the chromogenic or fluorogenic substrate by the relevant serine protease was measured both in the absence and presence of compounds of the present invention. […] A decrease in the rate of absorbance or fluorescence change in the presence of inhibitor is indicative of enzyme inhibition. Such methods are known to one skilled in the art. The results of this assay are expressed as the inhibitory constant, Ki.
Factor XIa determinations were made in 50 mM HEPES buffer at pH 7.4 containing 145 mM NaCl, 5 mM KCl, and 0.1% PEG 8000 (polyethylene glycol; JT Baker or Fisher Scientific). Determinations were made using purified human Factor XIa at a final concentration of 75-200 pM (Haematologic Technologies) and the synthetic substrate S-2366 (pyroGlu-Pro-Arg-pNA; Chromogenix or AnaSpec) at a concentration of 0.0002-0.001 M.
The Michaelis constant, Km, for substrate hydrolysis by each protease, was determined at 25° C. using the method of Lineweaver and Burk. Values of Ki were determined by allowing the protease to react with the substrate in the presence of the inhibitor. Reactions were allowed to go for periods of 20-180 minutes (depending on the protease) and the velocities (rate of absorbance or fluorescence change versus time) were measured. The following relationships were used to calculate Ki values: (vo−vs)/vs=I/(Ki(1+S/Km)) for a competitive inhibitor with one binding site; or vs/vo=A+((B−A)/1+((IC50/(I)^n))); and Ki=IC50/(1+S/Km) for a competitive inhibitor where: […]

T1 sequence (P03951 388-625 limits assumed): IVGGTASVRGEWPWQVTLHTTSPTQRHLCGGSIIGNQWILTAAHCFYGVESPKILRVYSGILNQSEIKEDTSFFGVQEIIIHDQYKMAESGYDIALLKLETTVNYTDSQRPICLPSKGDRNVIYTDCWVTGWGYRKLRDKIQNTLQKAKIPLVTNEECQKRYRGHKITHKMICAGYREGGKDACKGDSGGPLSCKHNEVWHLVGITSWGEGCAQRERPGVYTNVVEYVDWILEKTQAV
T1 sequence (P03951 19-387 partner limits assumed): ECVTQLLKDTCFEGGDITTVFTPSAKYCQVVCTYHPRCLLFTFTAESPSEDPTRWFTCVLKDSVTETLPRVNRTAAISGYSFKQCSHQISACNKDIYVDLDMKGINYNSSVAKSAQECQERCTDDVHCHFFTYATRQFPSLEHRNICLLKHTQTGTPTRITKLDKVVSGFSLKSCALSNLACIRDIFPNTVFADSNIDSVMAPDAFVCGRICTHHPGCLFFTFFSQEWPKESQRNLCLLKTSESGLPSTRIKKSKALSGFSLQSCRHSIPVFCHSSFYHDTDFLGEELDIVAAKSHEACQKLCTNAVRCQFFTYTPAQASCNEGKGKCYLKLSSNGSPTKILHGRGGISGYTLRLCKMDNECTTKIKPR

The Ki is a dissociation constant, usually derived from enzyme kinetics or from competition with a known ligand. Read a high Ki as a looser hold on the target. The molecule `O=C(O)CCOC(=O)Nc1ccc(-c2cnnc([C@H](Cc3ccccc3)NC(=O)CCc3ccccc3-n3cnnn3)c2)cc1` [Example 60, (S)-3-(4-(6-(1-(3-(2-(1H-Tetrazol-1-yl)phenyl)propanamido)-2-phenylethyl)pyridazin-4-yl)phenylcarbamoyloxy)propanoic acid] returned a Ki of 3370 nM. Consider `COC(=O)Nc1ccc(-c2cc(C(Cc3ccccc3)NC(=O)/C=C/c3cc(Cl)ccc3-n3ccnc3)c(Cl)nn2)cc1` (racemic) [Example 8, (±)-(E)-Methyl 4-(6-chloro-5-(1-(3-(5-chloro-2-(1H-imidazol-1-yl)phenyl)acrylamido)-2-phenylethyl)pyridazin-3-yl)phenylcarbamate], for which the Ki worked out at 1160 nM. In the case of `COC(=O)Nc1ccc(-c2cc([C@H](CC3CCN(C(=O)OCc4ccccc4)C3)NC(=O)/C=C/c3cc(Cl)ccc3-n3cnnn3)n[nH]c2=O)cc1` (stereo partly drawn) [Example 147, Benzyl 3-((S)-2-((E)-3-(5-chloro-2-(1H-tetrazol-1-yl)phenyl)acrylamido)-2-(5-(4-(methoxycarbonylamino)phenyl)-6-oxo-1,6-dihydropyridazin-3-yl)ethyl)pyrrolidine-1-carboxylate] it was 5150 nM. With `COC(=O)Nc1ccc(-c2cc([C@H](Cc3cc([S+](C)[O-])n(C)n3)NC(=O)/C=C/c3cc(Cl)ccc3-n3cnnn3)n[nH]c2=O)cc1` (stereo partly drawn) [Example 132, (S,E)-Methyl 4-(6-(1-(3-(5-chloro-2-(1H-tetrazol-1-yl)phenyl)acrylamido)-2-(1-methyl-5-(methylsulfinyl)-1H-pyrazol-3-yl)ethyl)-3-oxo-2,3-dihydropyridazin-4-yl)phenylcarbamate] the figure was 76 nM; with `CCOC(=O)Nc1ccc(-c2cc([C@H](Cc3ccccc3)NC(=O)/C=C/c3cc(Cl)ccc3-n3cnnn3)nnc2OCC)cc1` [Example 51, (S,E)-Ethyl 4-(6-(1-(3-(5-chloro-2-(1H-tetrazol-1-yl)phenyl)acrylamido)-2-phenylethyl)-3-ethoxypyridazin-4-yl)phenylcarbamate], 405 nM.
